The text below walks through data of article PMC11642016 (International Journal of Molecular Sciences, 2024).

The nature of this data set: CellTiter-Glo cell viability assay, HEK293T CLPP−/− (ClpP dependence).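 Further: CellTiter-Glo luminescent signal read on a microplate reader once HEK293T CLPP−/− cells had been exposed to compounds for 72 h.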 To be noted: human, HEK293T CLPP−/− cells, HEK293T CLPP-/- Cell viability (% of controll), 72 h, dose–response, individual replicates. Background: Cellular ATP, detected with luciferase, serves as a proxy for viable cell number.

Procedure: Primary fibroblast cultures were prepared from human skin biopsies and maintained in DMEM supplemented with 10% FBS, 1% penicillin-streptomycin, and 1% MEM Non-Essential Amino Acids Solution (Thermo Fisher Scientific). […] All cell lines were cultured in a humidified atmosphere at 37 °C and 5% CO2, passaged twice a week, and the experiments were performed on cells between passage 5 and 15. The cell lines were routinely screened for the absence of mycoplasma infection (DAPI staining).
The effects of the synthesized compounds on cell viability were measured using the CellTiter-Glo® luminescent cell viability assay (Promega, Madison, WI, USA), according to the manufacturer’s instructions. Briefly, cells were seeded onto a flat-bottomed, white 96-well plate (BRANDplates, cat. no.: 781965)), with the following densities: PANC-1: 750 cells/well, Fadu: 2000 cells/well, primary fibroblasts: 2000 cells/well, HEK293T WT: 1000 cells/well, HEK293T CLPP^−/−: 2500 cells/well. After seeding, cells were incubated for a further 48 h before treatment. Cells were treated with the compounds for 72 h. Three concentrations (25.0 µM; 8.3 µM; 2.8 µM) were applied during the initial cell viability screening, while for the determination of dose–response curves, 1.5-fold serially diluted compound concentrations were applied (range: 26 µM–0.7 µM). After treatment, the luminescence signal was recorded using a microplate reader (BioTek Synergy 2 Multi-Mode Reader, BioTek, Winooski, VT, USA).
Data analysis was performed using GraphPad Prism 9.5.0 software (GraphPad Software, San Diego, CA, USA). […] The dose–response curves were generated by four-parameter nonlinear regression, and the IC50 values were determined as the means ± SEM of the best-fit values of 3 independent measurements. The R^2 values were consistently above 0.93, indicating a strong fit of the model to the experimental data (Supplementary S.89). […] Dunnett’s post hoc test was applied to adjust for multiple comparisons, minimizing the likelihood of false positive results. Assumptions for ANOVA, including normality (assessed via QQ plots) and homogeneity of variance (tested using the Brown–Forsythe test), were verified. The following significance levels were applied: * p < 0.05, ** p < 0.01, *** p < 0.001, **** p < 0.0001. […] The tumor selectivity of the compounds was quantitatively characterized by the selectivity index (SI). This parameter was calculated as the ratio of the average best-fit IC50 value for primary fibroblasts and the best-fit IC50 value for the corresponding tumor cells (PANC-1 or Fadu).

As for `CNCC#Cc1cccc(CN2C(=O)C3=C(CCN(Cc4ccc(-n5cc(-c6ccccc6)nn5)cc4)C3)N3CCN=C23)c1` [38b], for the setting “0.4 μM”, the viability at 72 h, 0.4 µM is 113%. Besides, where the note is “0.6 μM”, the viability at 72 h, 0.6 µM was determined as 117%. Besides, the viability at 72 h, 1 µM (1.0 μM) amounted to 118%. Further, the viability at 72 h, 1.6 µM (1.6 μM) is 100%. The viability at 72 h, 6.4 µM (6.4 μM) was 0%. Where the note is “16.25 μM”, the viability at 72 h, 16.25 µM worked out at 0%. Further, the viability at 72 h, 26 µM (26 μM) is 0%.

The term viability denotes a read-out of living cells in per cent, often relative to untreated cells.
